Data published in publication PMC12112966 (2025).

Tests used:
Assay in all cases: BLI, immobilised aptamer
[1] = tested on: JD-3 (DNA, aptamer) ACTAGTGCAAATCTATTCCTATGTTACAGTGCCAATTTCA; settings: 2.7 mM KCl, 1.5 mM KH2PO4, 0.1 M NaCl, 20 mM Na2HPO4, 0.6 mM MgCl2, 0.9 mM CaCl2; selection buffer, pH 7.4; BLI response below 0.1 nm
[2] = tested on: JD2-RM3-27C28T (DNA, aptamer) AAAAGACTTAGTGTTGTCCTATGTATCT; settings: 2.7 mM KCl, 1.5 mM KH2PO4, 0.1 M NaCl, 20 mM Na2HPO4, 0.6 mM MgCl2, 0.9 mM CaCl2; selection buffer, pH 7.4; same concentration as AZA-2
[3] = tested on: JD-1 (DNA, aptamer) GAATGGACCCGGTATAATTCCCTCAAGAGTGCCAATTTCA; settings: 2.7 mM KCl, 1.5 mM KH2PO4, 0.1 M NaCl, 20 mM Na2HPO4, 0.6 mM MgCl2, 0.9 mM CaCl2; selection buffer, pH 7.4; BLI response below 0.1 nm
[4] = tested on: JD3-RMM1 (DNA, aptamer) ACTAGGGCAAATCTATACAGTGCCAATTTCA; settings: 2.7 mM KCl, 1.5 mM KH2PO4, 0.1 M NaCl, 20 mM Na2HPO4, 0.6 mM MgCl2, 0.9 mM CaCl2; selection buffer, pH 7.4; same concentration as AZA-2
[5] = tested on: JD-2 (DNA, aptamer) AAAAGACTTAGTGTTGTCCTATGTATAAGTGCCAATTTCA; settings: 2.7 mM KCl, 1.5 mM KH2PO4, 0.1 M NaCl, 20 mM Na2HPO4, 0.6 mM MgCl2, 0.9 mM CaCl2; selection buffer, pH 7.4; BLI response below 0.1 nm

Measured: binding

C=C1[C@@H](O)[C@@H]2O[C@]3(CC[C@H](/C=C/[C@@H](C)[C@@H]4CC(C)=C[C@@]5(O[C@H](C[C@@](C)(O)C(=O)O)CC[C@H]5O)O4)O3)CC[C@H]2O[C@@H]1[C@@H](O)C[C@H](C)[C@H]1O[C@@]2(CCCCO2)CC[C@H]1C
no: [1] | [2] | [3] | [4] | [5]
